What was measured:
hMC1R = hMC1R (Homo sapiens (Human), UniProt Q01726); assay: Transactivation test: melanocortin receptors (pCRE-Luc luciferase reporter), hMC1R; assay type: cell-based; conditions: HEK293 transfected with pCRE-Luc and hMC1R; products tested alone (agonist), 6 h incubation; % activity vs NDP-MSH 10 nM; IA: inactive
Procedure: (§1) Transactivation Test: Melanocortin Receptors
(§2) HEK293 lines are transfected with the pCRE-Luc and hMC1R, hMC3R, hMC4R or hMC5R vectors. The cells are cultured at 37° C., 5% CO2, in DMEM medium supplemented with 10% of foetal calf serum.
(§3) In the presence of an activator (agonist), the melanocortin receptor will activate the cAMP pathway which, via the CRE-Luc vector, will result in the synthesis of luciferase. After the addition of a lysis buffer containing a luminescent substrate for luciferase, it will be possible to measure the luminescence proportional to the degree of activation or of inhibition of the receptor.
(§4) The products are solubilized at 10 mM in DMSO. They are tested in the form of dose-response at a final DMSO concentration of 0.1%. The range comprising 10 points and one zero begins at 10 μM with 4-fold dilutions. For testing agonists, the products are tested alone. For determining the behaviour of antagonists, the products of interest are tested in the presence of 1 nM NDP-MSH (reference agonist). The cells are seeded at a rate of 5000 cells per well (384 well plate) in serum-free DMEM medium, and incubated overnight at 37° C., 5% CO2.
(§5) The products and the reference ligand (NDP-MSH) are added the following day, and the plates are again incubated for 6 h at 37° C., 5% CO2. After the addition of lysis buffer containing luciferin, the plates are read on a Top-Count instrument. The results are standardized as % activity using the 100% (cells+NDP-MSH at 10 nM) and 0% (cells alone) controls. An EC50 is calculated for each product using the XLFit software. The results are given in nM.

hMC4R = hMC4R (Homo sapiens (Human), UniProt P32245); assay: Transactivation test: melanocortin receptors (pCRE-Luc luciferase reporter), hMC4R; assay type: cell-based; conditions: HEK293 transfected with pCRE-Luc and hMC4R; products tested alone (agonist), 6 h incubation; % activity vs NDP-MSH 10 nM; IA: inactive
Chain of hMC4R (P32245 whole entry): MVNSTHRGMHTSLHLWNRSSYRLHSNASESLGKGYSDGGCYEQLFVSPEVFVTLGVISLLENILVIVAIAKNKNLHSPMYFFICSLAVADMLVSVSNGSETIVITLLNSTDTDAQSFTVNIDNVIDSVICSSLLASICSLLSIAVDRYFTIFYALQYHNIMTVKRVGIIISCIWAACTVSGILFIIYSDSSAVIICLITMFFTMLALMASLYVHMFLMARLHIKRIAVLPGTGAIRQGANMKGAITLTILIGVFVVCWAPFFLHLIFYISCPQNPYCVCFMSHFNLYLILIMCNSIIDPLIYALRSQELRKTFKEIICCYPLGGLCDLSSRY
Procedure: as §1, §2, §3, §4, §5

Chain of hMC1R (Q01726 whole entry): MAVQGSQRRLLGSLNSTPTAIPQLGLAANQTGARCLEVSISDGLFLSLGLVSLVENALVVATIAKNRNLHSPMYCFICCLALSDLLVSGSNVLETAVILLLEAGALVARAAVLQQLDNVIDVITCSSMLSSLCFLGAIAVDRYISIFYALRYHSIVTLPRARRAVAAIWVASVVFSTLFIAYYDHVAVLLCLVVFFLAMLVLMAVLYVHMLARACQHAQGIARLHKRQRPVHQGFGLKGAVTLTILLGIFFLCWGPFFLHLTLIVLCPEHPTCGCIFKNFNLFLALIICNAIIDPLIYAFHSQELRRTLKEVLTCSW

| Compound | EC50 (hMC1R) | EC50 (hMC4R) |
| --- | --- | --- |
| CCCCOC1(c2ccccc2C)CN(C(=O)[C@@H](Cc2ccc(OC)cc2)NC(=O)CCc2c[nH]cn2)C1 [Compound 15, N-[(R)-2-(3-butoxy-3-o-tolylazetidin-1-yl)-1-(4-methoxybenzyl)-2-oxoethyl]-3-(1H-imidazol-4-yl)propionamide] | 120 nM | 4000 nM |
| CCCCOC1(c2ccccc2C)CN(C(=O)[C@H](Cc2ccc(OC)cc2)NC(=O)CCc2c[nH]cn2)C1 [Compound 16, N-[(S)-2-(3-butoxy-3-o-tolylazetidin-1-yl)-1-(4-methoxybenzyl)-2-oxoethyl]-3-(1H-imidazol-4-yl)propionamide] | 2000 nM | 15000 nM |
| CCOC1(c2ccccc2C)CN(C(=O)[C@@H](Cc2ccc(OC)cc2)NC(=O)CCc2c[nH]cn2)C1 [Compound 17, N-[(R)-2-(3-ethoxy-3-o-tolylazetidin-1-yl)-1-(4-methoxybenzyl)-2-oxoethyl]-3-(1H-imidazol-4-yl)propionamide] | 250 nM | 8000 nM |
| CCCCOC1(c2ccccc2)CN(C(=O)[C@@H](CC2CCCCC2)NC(=O)CCc2c[nH]cn2)C1 [Compound 18, N-[(R)-2-(3-butoxy-3-phenylazetidin-1-yl)-1-cyclohexylmethyl-2-oxoethyl]-3-(1H-imidazol-4-yl)propionamide] | 8000 nM | 8000 nM |
| CCCCOC1(c2ccccc2)CN(C(=O)[C@@H](Cc2ccc(Cl)cc2Cl)NC(=O)CCc2c[nH]cn2)C1 [Compound 19, N-[(R)-2-(3-butoxy-3-phenylazetidin-1-yl)-1-(2,4-dichlorobenzyl)-2-oxoethyl]-3-(1H-imidazol-4-yl)propionamide] | 2000 nM | 120 nM |
| COc1ccc(C[C@@H](NC(=O)CCc2c[nH]cn2)C(=O)N2CC(OCC3CC3)(c3ccccc3C)C2)cc1 [Compound 20, N-[(R)-2-(3-cyclopropylmethoxy-3-o-tolylazetidin-1-yl)-1-(4-methoxybenzyl)-2-oxoethyl]-3-(1H-imidazol-4-yl)propionamide] | 120 nM | 4000 nM |
| CCCOC1(c2ccccc2C)CN(C(=O)[C@@H](Cc2ccc(OC)cc2)NC(=O)CCc2c[nH]cn2)C1 [Compound 22, N-[(R)-1-(4-methoxybenzyl)-2-oxo-2-(3-propoxy-3-o-tolylazetidin-1-yl)ethyl]-3-(1H-imidazol-4-yl)propionamide] | 120 nM | 10000 nM |
| CCCCOC1(c2ccc(F)cc2)CN(C(=O)[C@@H](Cc2ccc(OC)cc2)NC(=O)CCc2c[nH]cn2)C1 [Compound 23, N-[(R)-2-[3-butoxy-3-(4-fluorophenyl)azetidin-1-yl]-1-(4-methoxybenzyl)-2-oxoethyl]-3-(1H-imidazol-4-yl)propionamide] | 60 nM | 1000 nM |
| CCCCCOC1(c2ccccc2C)CN(C(=O)[C@@H](Cc2ccc(OC)cc2)NC(=O)CCc2c[nH]cn2)C1 [Compound 24, N-[(R)-1-(4-methoxybenzyl)-2-oxo-2-(3-pentyloxy-3-o-tolylazetidin-1-yl)ethyl]-3-(1H-imidazol-4-yl)propionamide] | 250 nM | 4000 nM |
| CCCCCCOC1(c2ccccc2C)CN(C(=O)[C@@H](Cc2ccc(OC)cc2)NC(=O)CCc2c[nH]cn2)C1 [Compound 25, N-[(R)-2-(3-hexyloxy-3-o-tolylazetidin-1-yl)-1-(4-methoxybenzyl)-2-oxoethyl]-3-(1H-imidazol-4-yl)propionamide] | 1000 nM | 8000 nM |
| CCCCCC1(c2ccccc2)CN(C(=O)[C@@H](Cc2ccc(OC)cc2)NC(=O)CCc2c[nH]cn2)C1 [Compound 26, N-[(R)-1-(4-methoxybenzyl)-2-oxo-2-(3-pentyl-3-phenylazetidin-1-yl)ethyl]-3-(1H-imidazol-4-yl)propionamide] | 500 nM | 4000 nM |
| CCCCC1(c2ccccc2)CN(C(=O)[C@@H](Cc2ccc(OC)cc2)NC(=O)CCc2c[nH]cn2)C1 [Compound 27, N-[(R)-2-(3-butyl-3-phenylazetidin-1-yl)-1-(4-methoxybenzyl)-2-oxoethyl]-3-(1H-imidazol-4-yl)propionamide] | 500 nM | 8000 nM |
| COc1ccc(C[C@@H](NC(=O)CCc2c[nH]cn2)C(=O)N2CC(OCC3CC3)(c3ccccc3)C2)cc1 [Compound 28, N-[(R)-2-(3-cyclopropylmethoxy-3-phenylazetidin-1-yl)-1-(4-methoxybenzyl)-2-oxoethyl]-3-(1H-imidazol-4-yl)propionamide] | 1000 nM | 8000 nM |
| CCCCOC1(c2ccc(F)cc2)CN(C(=O)[C@@H](Cc2cccc(F)c2)NC(=O)CCc2c[nH]cn2)C1 [Compound 31, N-[(R)-2-[3-butoxy-3-(4-fluorophenyl)azetidin-1-yl]-1-(3-fluorobenzyl)-2-oxoethyl]-3-(1H-imidazol-4-yl)propionamide] | 500 nM | 4000 nM |
| CCCCOC1(c2ccc(F)cc2)CN(C(=O)[C@@H](Cc2ccc(F)cc2)NC(=O)CCc2c[nH]cn2)C1 [Compound 32, N-[(R)-2-[3-butoxy-3-(4-fluorophenyl)azetidin-1-yl]-1-(4-fluorobenzyl)-2-oxoethyl]-3-(1H-imidazol-4-yl)propionamide] | 1000 nM | 4000 nM |
| CCCCOC1(c2ccccc2)CN(C(=O)[C@@H](Cc2ccc(F)cc2)NC(=O)CCc2c[nH]cn2)C1 [Compound 33, N-[(R)-2-(3-butoxy-3-phenylazetidin-1-yl)-1-(4-fluorobenzyl)-2-oxoethyl]-3-(1H-imidazol-4-yl)propionamide] | 500 nM | 2000 nM |
| CCCCOC1(c2ccc(F)cc2)CN(C(=O)[C@@H](Cc2ccccc2)NC(=O)CCC2=NCC=N2)C1 [Compound 34, N-{(R)-1-benzyl-2-[3-butoxy-3-(4-fluoro-phenyl)azetidin-1-yl]-2-oxoethyl}-3-(4H-imidazol-2-yl)propionamide] | 1000 nM | 2000 nM |
| CCCCOC1(c2ccccc2)CN(C(=O)[C@@H](Cc2ccccc2)NC(=O)CCc2c[nH]cn2)C1 [Compound 35, N-[(R)-1-benzyl-2-(3-butoxy-3-phenylazetidin-1-yl)-2-oxoethyl]-3-(1H-imidazol-4-yl)propionamide] | 500 nM | 2000 nM |
| CCCCOC1(c2ccccc2)CN(C(=O)[C@@H](Cc2ccc(OC)cc2)NC(=O)CCc2c[nH]cn2)C1 [Compound 36, N-[(R)-2-(3-butoxy-3-phenylazetidin-1-yl)-1-(4-methoxybenzyl)-2-oxoethyl]-3-(1H-imidazol-4-yl)propionamide] | 1000 nM | 3000 nM |
| CCCCCC1(c2ccccc2C)CN(C(=O)[C@@H](Cc2ccc(OC)cc2)NC(=O)CCc2c[nH]cn2)C1 [Compound 37, N-[(R)-1-(4-methoxybenzyl)-2-oxo-2-(3-pentyl-3-o-tolylazetidin-1-yl)ethyl]-3-(1H-imidazol-4-yl)propionamide] | 250 nM | 2000 nM |
| CCCCOC1(c2ccccc2C)CN(C(=O)[C@@H](Cc2ccc(OC)cc2)NC(=O)CCc2c[nH]nn2)C1 [Compound 39, N-[(R)-2-(3-butoxy-3-o-tolylazetidin-1-yl)-1-(4-methoxybenzyl)-2-oxoethyl]-3-(1H-[1,2,3]triazol-4-yl)propionamide] | 8000 nM | 2000 nM |
| CCCCOC1(c2ccccc2C)CN(C(=O)[C@@H](Cc2ccc(OC)cc2)NC(=O)CCC2N=NC(C)=N2)C1 (stereo partly drawn) [Compound 40, N-[(R)-2-(3-butoxy-3-o-tolylazetidin-1-yl)-1-(4-methoxybenzyl)-2-oxoethyl]-3-(5-methyl-3H-[1,2,4]triazol-3-yl)propionamide] | 8000 nM | 500 nM |
| CCCCOC1(c2ccccc2C)CN(C(=O)[C@@H](Cc2ccc(OC)cc2)NC(=O)CCc2[nH]cnc2C)C1 [Compound 41, N-[(R)-2-(3-butoxy-3-o-tolylazetidin-1-yl)-1-(4-methoxybenzyl)-2-oxoethyl]-3-(5-methyl-3H-imidazol-4-yl)propionamide] | 120 nM | 1000 nM |
| CCCCCC1(c2ccccc2)CN(C(=O)[C@@H](Cc2ccc(Cl)cc2)NC(=O)CCc2c[nH]cn2)C1 [Compound 45, N-[(R)-1-(4-chlorobenzyl)-2-oxo-2-(3-pentyl-3-phenylazetidin-1-yl)ethyl]-3-(1H-imidazol-4-yl)propionamide] | 2000 nM | 2000 nM |
| CCCCCC1(c2ccccc2)CN(C(=O)[C@@H](Cc2ccc(F)cc2)NC(=O)CCc2c[nH]cn2)C1 [Compound 46, N-[(R)-1-(4-fluorobenzyl)-2-oxo-2-(3-pentyl-3-phenylazetidin-1-yl)ethyl]-3-(1H-imidazol-4-yl)propionamide] | 1000 nM | 4000 nM |
| CCCCCC1(c2ccccc2)CN(C(=O)[C@@H](Cc2ccccc2)NC(=O)CCc2c[nH]cn2)C1 [Compound 47, N-[(R)-1-benzyl-2-oxo-2-(3-pentyl-3-phenylazetidin-1-yl)ethyl]-3-(1H-imidazol-4-yl)propionamide] | 500 nM | 4000 nM |

— patent US9630949B2, “Oxoazetidine derivatives, process for the preparation thereof and use thereof in human medicine and in cosmetics” (GALDERMA RESEARCH & DEVELOPMENT, priority 2008, dated 2017)
